This is an account of results in patent US20150045410A1, “METHOD OF REGULATING CFTR EXPRESSION AND PROCESSING” (University of Iowa Research Foundation, priority 2012, published 2015).

This data set has as its target T1, CFTR-ΔF508 (Homo sapiens, UniProt P13569, DEL508-508).
T1 construct: expressed in transfected cells
As to the kind of experiment: Cell surface ELISA (anti-HA) in HeLa cells stably expressing HA-tagged CFTR-ΔF508. The data set is classed as cell-based. Conditions: for surface display of ΔF508-CFTR (live cell-surface ELISA): HeLa-ΔF508-CFTR-HA cells treated daily with drugs, 72 hr post-treatment, vs DMSO (FIG. 28, 29); for mutant CFTR at the cell surface (ELISA): HeLa cells, CFTR-ΔF508-3HA under CMV promoter, oligonucleotide transfection, 6, 12, 24 hrs. In general terms: ELISA stands for enzyme-linked immunosorbent assay.

T1 sequence (P13569 with tags, fused parts or gaps DEL508-508): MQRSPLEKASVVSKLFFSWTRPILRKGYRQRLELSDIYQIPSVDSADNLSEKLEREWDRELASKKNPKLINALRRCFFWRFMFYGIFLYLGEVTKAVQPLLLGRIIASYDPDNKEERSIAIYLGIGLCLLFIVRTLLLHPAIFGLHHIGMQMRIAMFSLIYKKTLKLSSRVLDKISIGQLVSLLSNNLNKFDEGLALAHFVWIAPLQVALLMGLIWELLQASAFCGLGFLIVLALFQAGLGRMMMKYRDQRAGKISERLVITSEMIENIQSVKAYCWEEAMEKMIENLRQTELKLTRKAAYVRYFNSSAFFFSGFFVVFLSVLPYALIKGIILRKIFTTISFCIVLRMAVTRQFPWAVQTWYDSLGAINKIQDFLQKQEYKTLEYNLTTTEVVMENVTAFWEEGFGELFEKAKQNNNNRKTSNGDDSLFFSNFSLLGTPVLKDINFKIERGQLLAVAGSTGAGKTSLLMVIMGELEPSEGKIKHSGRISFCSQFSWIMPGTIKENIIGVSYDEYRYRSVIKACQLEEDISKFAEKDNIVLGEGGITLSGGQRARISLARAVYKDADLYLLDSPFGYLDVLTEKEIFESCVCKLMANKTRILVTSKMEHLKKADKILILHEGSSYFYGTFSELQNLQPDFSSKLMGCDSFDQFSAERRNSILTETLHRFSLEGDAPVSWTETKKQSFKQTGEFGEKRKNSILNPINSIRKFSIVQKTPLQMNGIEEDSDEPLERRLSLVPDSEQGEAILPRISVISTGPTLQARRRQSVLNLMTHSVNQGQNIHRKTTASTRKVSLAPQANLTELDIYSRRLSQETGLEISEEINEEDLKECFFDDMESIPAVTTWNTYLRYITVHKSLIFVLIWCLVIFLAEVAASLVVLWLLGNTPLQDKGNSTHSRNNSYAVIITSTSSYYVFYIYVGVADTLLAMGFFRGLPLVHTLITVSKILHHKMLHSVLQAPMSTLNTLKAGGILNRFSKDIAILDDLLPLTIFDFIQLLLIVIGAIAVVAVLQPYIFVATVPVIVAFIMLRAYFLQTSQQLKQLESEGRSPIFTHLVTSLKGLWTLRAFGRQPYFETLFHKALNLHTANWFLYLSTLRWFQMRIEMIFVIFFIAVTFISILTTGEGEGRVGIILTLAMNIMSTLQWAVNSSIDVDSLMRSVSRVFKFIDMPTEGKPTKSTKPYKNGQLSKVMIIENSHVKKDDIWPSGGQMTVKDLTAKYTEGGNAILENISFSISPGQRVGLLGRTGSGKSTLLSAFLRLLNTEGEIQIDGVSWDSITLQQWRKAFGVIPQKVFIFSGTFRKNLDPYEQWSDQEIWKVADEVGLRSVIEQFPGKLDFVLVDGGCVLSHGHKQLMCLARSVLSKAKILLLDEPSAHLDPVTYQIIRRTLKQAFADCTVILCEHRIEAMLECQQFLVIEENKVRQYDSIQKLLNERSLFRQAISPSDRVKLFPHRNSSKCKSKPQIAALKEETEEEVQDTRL

Regarding `O[C@](CCN1CCCCC1)(c1ccccc1)[C@H]1CC2C=CC1C2` (mixture of isomers) [Biperiden], the “surface display of ΔF508-CFTR (live cell-surface ELISA)” value (shortened to “surface display of ΔF508-CFTR”) is recorded as “increased”.
On to `CN1CCC(=C2c3ccccc3CCc3sccc32)CC1` [Pizotifen, 4-(1-methyl-4-piperidylidine)-9, 1 0-dihydro-4H-benzo-[4,5]cyclohepta[1,2]-thiophene], for which the “surface display of ΔF508-CFTR” value was “increased”.
Take `COc1cc2ncnc(Nc3cccc(Cl)c3)c2cc1OC` [Tyrophostin (AG-1478), N-(3-chlorophenyl)-6,7-dimethoxy-4-quinazolinamine]: the “surface display of ΔF508-CFTR” value is “increased”.
On to “SIN3A DsiRNA: Dicer-substrate siRNA against SIN3A, sense SEQ ID NO: 6, antisense SEQ ID NO: 7 (sense GCGAUACAUGAAUUCAGAUACUACC; antisense GGUAGUAUCUGAAUUCAUGUAUCGCUC; chemistry not given here)”, for which the “mutant CFTR at the cell surface (ELISA)” value is recorded as “mutant CFTR reached the cell surface”.
Consider “miR-138 mimic: synthetic modified RNA duplex, sense SEQ ID NO: 4, antisense SEQ ID NO: 5, showing miR-138-like activity”, for which the “mutant CFTR at the cell surface (ELISA)” value is on record as “mutant CFTR reached the cell surface”.
